Tests used:
non-His-tagged CLIC3 = target: T1, non-His-tagged CLIC3 (Homo sapiens, UniProt O95833); assay: HEDS assay coupled to glutathione reductase, NADPH consumption at […] nm; format: biochemical; conditions: 1 mM GSH fixed, 250 uM NADPH, 0.5 ug/mL GR, 10 uM enzyme, 5 mM potassium phosphate, 1 mM EDTA, pH 7, 37 C; imidazole-free storage buffer
T1 construct: E. coli BL21(DE3); Ni-NTA and SEC; reduced soluble monomer

non-His-tagged CLIC1 = non-His-tagged CLIC1 (Homo sapiens, UniProt O00299); conditions: 1 mM GSH fixed, 250 uM NADPH, 0.5 ug/mL GR, 10 uM enzyme, 5 mM potassium phosphate, 1 mM EDTA, pH 7, 37 C; imidazole-free storage buffer

T1 sequence (O95833 whole entry): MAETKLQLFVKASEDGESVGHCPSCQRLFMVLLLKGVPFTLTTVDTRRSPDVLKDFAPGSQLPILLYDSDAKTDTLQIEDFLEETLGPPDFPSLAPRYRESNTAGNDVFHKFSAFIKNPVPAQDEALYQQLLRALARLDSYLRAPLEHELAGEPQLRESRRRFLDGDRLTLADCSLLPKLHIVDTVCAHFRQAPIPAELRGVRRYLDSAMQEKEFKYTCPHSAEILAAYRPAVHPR

For `OCCSSCCO` [HEDS], the Km (non-His-tagged CLIC3) was 994 µM and the Km (non-His-tagged CLIC1) was 2500 µM.
